From patent US7449301B2, “Pharmaceutical composition and method for activating macrophage using the same” (National University Corporation Gunma University, priority 2004, dated 2008)

How the values were obtained:
Assay type in all cases: cell-based, mouse
[1] = tested on: peritoneal macrophages (PEMs); assay: Phagocytosis assay of PEMs with RBCs (phagocytosis index); settings: PEMs preincubated 30 min with ML-7 10 μM or BDM 50 mM; IgG-opsonized RBCs 5 min; FIG. 3
[2] = tested on: PEMs; assay: Immunocytofluorescence of PEMs (morphology, F-actin, activated MAPK); settings: PEMs treated with mAb80 in presence of inhibitor; FIG. 4B
Method: PEMs treated with rat IgG, mAb80 or mAb84 were fixed for 20 to 30 min at room temperature in PBS containing 4% paraformaldehyde and 0.1% glutaraldehyde, and were then permeabilized for 60 min at room temperature in PBS containing 0.1% Triton X-100 and 5% goat serum (blocking solution). After incubation for 1 h at room temperature or overnight at 4° C. with primary antibody (anti-activated MAPK antibody) diluted in blocking solution, the cells were washed with PBS and incubated for 1 h at room temperature with Alexa488-conjugated secondary antibodies (Molecular Probes) diluted in blocking solution. For visualization of F-actin, cells were incubated with rhodamine-conjugated phalloidin (Molecular Probes) together with the secondary antibodies. The cells were finally washed with PBS and mounted. Fluorescence images were acquired with a laser-scanning confocal microscope (LSM5 PASCAL, Zeiss) (FIG. 4).

[3] = tested on: MAPK; assay: Immunoblot of activated (phosphorylated) MAPK in PEMs; settings: 50 μM PD98059 or 2 μM U0126, FIG. 2B, C bottom
Method: PEMs were treated with anti-SIRPβ antibody or control IgG, and a secondary antibody, and incubated at 37° C. for 10 min. As a positive control, PEMs were incubated at 37° C. for 10 min in the presence of M-CSF (macrophage colony stimulating factor) (10 ng/ml). As a negative control, non-treated PEMs were used. Then, cells were lysed and subjected to immunoblot analysis using an anti-MAPK antibody (αMAPK), anti-activated (phosphorylated) MAPK antibody (αpMAPK), anti-MEK antibody (αMEK) or anti-activated MEK antibody (αpMEK) (FIG. 2A).
Then, the MEK inhibitors, PD98059 and U0126 were used to examine the role of MAPK-MEK pathway in the macrophage activation by an anti-SIRPβ antibody. PEMs were incubated in the presence or absence of 50 μM PD98059 or 2 μM U0126 at 37° C. for 30 min, and then treated with an anti-SIRPβ antibody or control IgG, and a secondary antibody. After incubation with IgG-opsonized RBCs at 37° C. for 5 min, cells were fixed and phagocytosis index was calculated (FIG. 2B, C; upper figures). On the other hand, PEMs were treated with an anti-SIRPβ antibody or control IgG, and a secondary antibody in the presence or absence of the inhibitors, followed by an analysis using an anti-MAPK antibody (αMAPK) and an anti-activated (phosphorylated) MAPK antibody (αpMAPK) (FIG. 2B, C; bottom figures). […]

SMILES	effect of inhibitor on anti-SIRPβ antibody activation of macrophage-mediated phagocytosis [1]	effect of inhibitor on morphological change of PEMs induced by anti-SIRPβ antibody [2]	activation of MAPK by mAb80 and mAb84 in the presence of MEK inhibitor [3]
CC(=O)C(C)=NO [BDM, 2,3-butanedione 2-monoxime]	attenuated the activation of macrophages-mediated phagocytosis	–	–
O=S(=O)(c1cccc2c(I)cccc12)N1CCCNCC1 [ML-7]	attenuated the activation of macrophages-mediated phagocytosis	markedly inhibited	–
N#CC(=C(/N)Sc1ccccc1N)/C(C#N)=C(\N)Sc1ccccc1N [U0126]	–	–	did not occur
COc1cccc(-c2cc(=O)c3ccccc3o2)c1N [PD98059]	–	markedly inhibited	did not occur
